Target: T1, α4β7 (Homo sapiens, UniProt P13612+P26010)
T1 construct: endogenous in cells; host or cells: RPMI 8866 cells
T1 sequence (P13612 34-1032): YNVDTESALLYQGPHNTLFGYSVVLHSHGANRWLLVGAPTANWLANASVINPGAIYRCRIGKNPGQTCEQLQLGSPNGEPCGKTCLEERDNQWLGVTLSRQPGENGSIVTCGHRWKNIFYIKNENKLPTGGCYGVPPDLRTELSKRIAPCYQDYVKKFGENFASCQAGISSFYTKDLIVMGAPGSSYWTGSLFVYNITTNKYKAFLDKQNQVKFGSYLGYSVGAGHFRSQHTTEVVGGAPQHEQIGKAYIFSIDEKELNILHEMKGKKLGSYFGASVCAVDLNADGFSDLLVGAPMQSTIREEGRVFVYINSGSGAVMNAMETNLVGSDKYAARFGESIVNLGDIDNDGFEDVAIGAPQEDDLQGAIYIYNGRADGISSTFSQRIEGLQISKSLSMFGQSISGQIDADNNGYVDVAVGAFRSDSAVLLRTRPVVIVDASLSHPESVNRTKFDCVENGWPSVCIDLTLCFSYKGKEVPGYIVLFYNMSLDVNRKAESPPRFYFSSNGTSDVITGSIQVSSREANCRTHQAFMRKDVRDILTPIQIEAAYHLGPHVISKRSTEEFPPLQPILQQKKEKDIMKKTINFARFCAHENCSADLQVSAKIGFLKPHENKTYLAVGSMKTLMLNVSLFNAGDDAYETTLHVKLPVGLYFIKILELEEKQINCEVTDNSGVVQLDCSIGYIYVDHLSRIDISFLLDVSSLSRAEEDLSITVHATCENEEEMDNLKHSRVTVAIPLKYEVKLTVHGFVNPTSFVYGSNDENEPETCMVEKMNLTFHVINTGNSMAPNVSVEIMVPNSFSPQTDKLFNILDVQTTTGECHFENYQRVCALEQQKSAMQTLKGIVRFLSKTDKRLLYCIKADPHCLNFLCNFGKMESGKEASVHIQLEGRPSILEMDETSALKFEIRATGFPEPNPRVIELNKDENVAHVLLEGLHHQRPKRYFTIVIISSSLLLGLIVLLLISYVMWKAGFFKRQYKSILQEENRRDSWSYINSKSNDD
T1 sequence (P26010 20-798): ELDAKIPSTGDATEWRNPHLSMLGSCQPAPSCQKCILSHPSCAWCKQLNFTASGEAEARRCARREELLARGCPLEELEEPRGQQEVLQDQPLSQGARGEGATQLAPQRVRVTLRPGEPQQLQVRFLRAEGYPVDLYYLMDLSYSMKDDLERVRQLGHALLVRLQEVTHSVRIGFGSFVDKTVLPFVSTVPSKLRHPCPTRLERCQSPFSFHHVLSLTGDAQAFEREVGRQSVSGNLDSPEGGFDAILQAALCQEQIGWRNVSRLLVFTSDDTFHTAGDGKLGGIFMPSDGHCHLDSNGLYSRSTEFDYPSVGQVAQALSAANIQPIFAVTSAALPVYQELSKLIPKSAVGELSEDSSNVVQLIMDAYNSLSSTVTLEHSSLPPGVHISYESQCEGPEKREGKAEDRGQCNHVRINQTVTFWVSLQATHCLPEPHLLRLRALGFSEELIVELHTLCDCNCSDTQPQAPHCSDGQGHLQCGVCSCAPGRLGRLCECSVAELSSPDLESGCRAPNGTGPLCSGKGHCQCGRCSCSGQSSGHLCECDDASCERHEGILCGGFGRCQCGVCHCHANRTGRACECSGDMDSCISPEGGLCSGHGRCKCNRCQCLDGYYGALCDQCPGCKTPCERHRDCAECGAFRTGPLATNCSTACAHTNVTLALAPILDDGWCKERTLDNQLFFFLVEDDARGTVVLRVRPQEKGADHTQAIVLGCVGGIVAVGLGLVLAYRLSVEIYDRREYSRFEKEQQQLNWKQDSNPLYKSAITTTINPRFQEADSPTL
Assay: Cell-based MAdCAM-1 ligand binding assay (LBA) on RPMI 8866 cells (Example 6)
Settings: MAdCAM-1-Fc Dylight 650, 3 mM manganese chloride, flow cytometry, Table 3, read-out: LB Assay (Example 6)
Excerpt: Compounds of Formula (I) were further evaluated using a Ligand binding assay (LBA) to examine compound potency of free ligand binding to receptors expressed on cells. The MAdCAM ligand binding assay uses flow cytometry to measure the binding of fluorescently-labeled MAdCAM-1-Fc to RPMI 8866 cells in the presence of Mn++. This assay assesses the binding of compounds to native full-length receptors on the cell surface. […] Ligand binding assays (LBA) are used to examine compound potency and selectivity of free ligand binding to receptors expressed on cells.
Three in vitro assays were used to examine the α4β7 mechanistic process used by cells: 1) ligand:receptor affinity, 2) the avidity of those interactions on a cell's surface, and 3) how those interactions fare under an imposing force. In Example 5, a Fluorescence Polarization (FP) assay is used to measure compound activity through binding competition with the fluorescein-labeled peptide. In Example 6, the potency of compounds against α4β7 is measured in the cell-based ligand binding assay (LBA), using RPMI 8866 cells incubated with the compound samples in competition with soluble MAdCAM-1 ligand. In Example 7, activity of compounds is evaluated in a cell adhesion assay that mechanistically tests what occurs in vivo when trafficking cells utilize α4β7 to adhere to MAdCAM-1 expressing HEVs of the gut during the extravasation process. In the cell adhesion assay of Example 7, a MAdCAMI1-(Fc) is coated on plastic, and α4β7 expressing cells (RPMI-8866) are allowed to adhere to the coated surface in the presence of the test compounds. Next, the force of washing with buffer is applied to cells thereby testing the strength of that adhesion. Unattached cells are removed and the remaining adherent cells are quantified.
5 ul of 33 nM MAdCAM-1-Fc fluorescently labeled with Dylight 650 in 50 mM HEPES pH 7.3, 150 mM sodium chloride, and 1% bovine serum albumin was added to the cells. The samples were incubated for 45 minutes at room temperature, fixed with 0.8% formaldehyde for 30 minutes at room temperature, and washed with 50 mM Tris pH 7.5, 150 mM NaCl, 1 mM EDTA, and 1% bovine serum albumin. Fluorescence intensity for each cell was measured via flow cytometry. Dead cells were excluded from further analysis based on staining with the 780 fixable viability dye. Median fluorescence intensity for Dylight 650 was determined for each sample and concentration-response curves were analyzed for IC50 values using 4-parameter non-linear regression analysis.

| IC50 [nM] | SMILES |
| --- | --- |
| < 10 | Cc1cc(-c2c(C)ccc(F)c2C)cc([C@H](CC(=O)O)NC(=O)C(CC(C)C)n2cc(CCN3CCC3)c(C(F)(F)F)cc2=O)c1F (single isomer, unassigned) [AF-P2] |
| < 10 | Cc1cc(-c2c(C)cccc2C)cc([C@H](CC(=O)O)NC(=O)C(CC(C)C)n2cc(CCN3CC[C@@H](F)C3)cc(F)c2=O)c1F (single isomer, unassigned) [AU-P2] |
| < 10 | COc1ccc(C)c(-c2cc(C)c(F)c([C@H](CC(=O)O)NC(=O)C(CC(C)C)n3cc(CCN4CCC4)c(C(F)(F)F)cc3=O)c2)c1C (single isomer, unassigned) [AG-P2] |

Same assay, conditions: MAdCAM-1-Fc Dylight 650, 3 mM manganese chloride, flow cytometry, Table 4 comparative compounds, read-out: LB Assay (Example 6)

| SMILES | IC50 [nM] |
| --- | --- |
| Cc1ccn([C@@H](CC(C)C)C(=O)N[C@@H](CC(=O)O)c2cncc(-c3c(C)cccc3C)c2)c(=O)c1 | < 10 |
| Cc1cccc(C)c1-c1cccc([C@H](CC(=O)O)NC(=O)[C@H](CC(C)C)n2cc(CCN(C)C)ccc2=O)c1 | < 10 |
| CC(C)C[C@@H](C(=O)N[C@@H](CC(=O)O)c1ccc(-c2ccc(F)cc2)cc1)n1cc(CCN(C)C)c(C(F)(F)F)cc1=O | 10 to 500 |
| Cc1cccc(C)c1-c1cccc([C@H](CC(=O)O)NC(=O)[C@H](CC(C)C)n2cc(CN3CC(F)C3)ccc2=O)c1 [drawing 572] | < 10 |
| Cc1ccccc1-c1cccc([C@H](CC(=O)O)NC(=O)[C@H](CC(C)C)n2cccc(C)c2=O)c1 | 10 to 500 |
| Cc1cccc(C)c1-c1cccc([C@H](CC(=O)O)NC(=O)[C@H](CC(C)C)n2cc(CN3CC(F)C3)ccc2=O)c1 [drawing 604] | < 10 |
| Cc1cccc(C)c1-c1cccc([C@H](CC(=O)O)NC(=O)[C@H](CC(C)C)n2cc(CN3CC(F)C3)ccc2=O)c1 [drawing 589] | < 10 |
| Cc1cccc(C)c1-c1cccc([C@H](CC(=O)O)NC(=O)[C@H](CC(C)C)n2cc(CN3CC(F)C3)ccc2=O)c1 [drawing 599] | < 10 |
| Cc1cccc(C)c1-c1cncc([C@H](CC(=O)O)NC(=O)[C@H](CC(C)C)N2CC[C@@H](C(F)(F)F)CC2=O)c1 | 10 to 500 |

Results, then the compound that gave them:

| IC50 [nM] | SMILES |
| --- | --- |
| < 10 | Cc1cccc(C)c1-c1cccc([C@H](CC(=O)O)NC(=O)[C@H](CC(C)C)n2ccc(CCN(C)C)cc2=O)c1 |
| < 10 | Cc1cccc(C)c1-c1cccc([C@H](CC(=O)O)NC(=O)[C@H](CC(C)C)n2cc(CN3CC(F)C3)ccc2=O)c1 [drawing 577] |
| 10 to 500 | CC(C)C[C@@H](C(=O)N[C@@H](CC(=O)O)c1ccc(-c2ccccc2)cc1)n1cc(CCN(C)C)c(C(F)(F)F)cc1=O |
| < 10 | Cc1cccc(C)c1-c1cccc([C@H](CC(=O)O)NC(=O)[C@H](CC(C)C)n2cc(CN3CC[C@@H](F)C3)ccc2=O)c1 |
| 10 to 500 | COC[C@@H](C(=O)N[C@@H](CC(=O)O)c1cccc(-c2c(C)cccc2C)c1)n1ccc(C)cc1=O |
| 10 to 500 | CC(C)C[C@@H](C(=O)N[C@@H](CC(=O)O)c1ccc(-c2ccc(F)cc2)cc1)n1cc(CCN2CC(F)C2)cc(F)c1=O |
| 10 to 500 | Cc1cccc(C)c1-c1cccc([C@H](CC(=O)O)NC(=O)[C@H](CC(C)C)n2cccc(CCN(C)C)c2=O)c1 |
| < 10 | Cc1cccc(C)c1-c1cccc([C@H](CC(=O)O)NC(=O)[C@H](CC(C)C)n2cc(CN3CC(F)C3)ccc2=O)c1 [drawing 585] |
| < 10 | Cc1cccc(C)c1-c1cncc([C@H](CC(=O)O)NC(=O)[C@H](CC(C)C)n2cc(CN3CC(F)C3)ccc2=O)c1 |
| < 10 | Cc1cccc(C)c1-c1cccc([C@H](CC(=O)O)NC(=O)[C@H](CC(C)C)n2cc(CN3CC(F)C3)ccc2=O)c1 [drawing 594] |
| 10 to 500 | CC(C)C[C@@H](C(=O)N[C@@H](CC(=O)O)c1ccc(-c2ccccc2)cc1)n1cc(CCN2CC(F)C2)cc(F)c1=O |
| 10 to 500 | Cc1ccc([C@@H](C(=O)N[C@@H](CC(=O)O)c2cncc(-c3c(C)cccc3C)c2)N2CC(C)CCC2=O)cc1 (stereo partly shown) |
| < 10 | Cc1cccc(C)c1-c1cncc([C@H](CC(=O)O)NC(=O)[C@H](CC(C)C)n2ccc(C(F)(F)F)cc2=O)c1 |

From US11104661B1, “Inhibiting human integrin (α-4) (β-7)” (Morphic Therapeutic, Inc., priority 2019, dated 2021)
